The record followed here is US4327222A, “3,4-Diarylisoxazol-5-acetic acids and process for making same” (priority 1979, dated 1982).

Entries after “also recorded” stand apart in the source; their conditions may differ. Read-outs that look alike come from different tables or passages of the source.

In one data set the test system is cotton pellet granuloma. As to the kind of experiment: Antigranuloma: cotton pellet granuloma test in the rat. It counts as in vivo. How it is done: (§1) 138, 405 (1962), both in the rat. […] Acute toxicities are determined in rats and in mice and the LD50 's are calculated according to the method of Litchfield and Wilcoxon, J.Pharmacol.Exp. Therap. 96, 99 (1949).

The subject of data set [1] is carrageenin-induced paw edema. Nature of the data set: Anti-inflammatory: carrageenin-induced paw edema test in the rat (modified Winter et al.). It counts as in vivo. The note with it: for ED50: po, read-out: ED50 p.o. Anti-inflammatory (Carrageenin). (In general: Carrageenan injected into the paw causes an acute inflammation.)
The subject of a further data set is rats. As to the kind of experiment: in vivo. It counts as in vivo. How it is done: (§2) Acute toxicities are determined in rats and in mice and the LD50 's are calculated according to the method of Litchfield and Wilcoxon, J.Pharmacol.Exp. Therap.
A short description of data set [2]: in vivo. Particulars: mouse, po, mice, read-out: Acute Toxicity (LD50) p.o. How it is done: as §1
Data set [3] has as its system phenylquinone-induced muscular writhing. As to the kind of experiment: Analgesic: phenylquinone-induced muscular writhing test in mice (modified Siegmund et al.). It counts as in vivo. The note with it: for ED50: Mus musculus, po, read-out: ED50 p.o. Analgesic (Phenylquinone).
The next data set has as its system yeast-induced fever. Nature of the data set: Anti-pyretic: yeast-induced fever test in rats. It counts as in vivo. The note with it: Rattus norvegicus, po, read-out: ED50 p.o. Anti-Pyretic (Yeast).
A short description of data set [4]: in vivo. It counts as in vivo. The note with it: rat, in vivo, po; rats; read-out: Acute Toxicity (LD50) p.o. How it is done:
as §2

For `COc1ccc(-c2noc(CC(=O)O)c2-c2ccc(OC)cc2)cc1` [3,4,-Di(p-methoxyphenyl)isoxazol-5-acetic Acid], the “activity in antigranuloma test (in words)” value in the data set with cotton pellet granuloma was “active in antigranuloma test”. Also, the 50% effective dose (ED50) (in general, the dose that gives a 50% effect, or the effect in half of the subjects) is 25 to 40 mg/kg in data set [1] (Rattus norvegicus), 1.8 mg/kg in data set [3] and greater than 120 mg/kg with yeast-induced fever. Moreover, in data set [1] (rat, listed as Example 4), the “anti-inflammatory activity (in words)” value was “remarkable anti-inflammatory and analgesic activities; also recorded: well within the range of the same activities shown for a number of established anti-inflammatory drugs and are markedly superior to the activities of known 3-arylisoxazol-5-acetic acids”. For the same compound, in the data set on rats (LD50 / anti-inflammatory ED50), the “therapeutic index LD50/anti-inflammatory ED50 (in words)” value is “favourable therapeutic index”. The “order of toxicity (in words)” value with rats (rats and mice) is “low order of toxicity”. Moreover, the LD50 (as a rule, the dose expected to kill half of the subjects tested) in “in vivo [2]” was determined as 1000 mg/kg. For the same compound, in data set [3] (mice, listed as Example 4), the “analgesic activity (in words)” value is “remarkable anti-inflammatory and analgesic activities; also recorded: well within the range of the same activities shown for a number of established anti-inflammatory drugs and are markedly superior to the activities of known 3-arylisoxazol-5-acetic acids”.

Regarding `O=C(O)Cc1onc(-c2ccccc2)c1-c1ccccc1` [3,4-Diphenylisoxazol-5-acetic Acid], the ED50 amounted to 120 mg/kg in data set [1] (rat, carrageenin paw edema) and 120 mg/kg with yeast-induced fever (rats, yeast-induced fever). Further, in the data set “in vivo [2]”, the median lethal dose (LD50) is 670 mg/kg.

For `COc1ccc(-c2cc(CC(=O)O)on2)cc1` [3-(p-methoxyphenyl)isoxazol-5-acetic acid], the median effective dose (ED50) in data set [1] (rat, carrageenin paw edema) was greater than 135 mg/kg; in data set [3] (mice, phenylquinone writhing), 60 mg/kg; in the data set on yeast-induced fever (rats, yeast-induced fever), greater than 120 mg/kg.

Consider `O=C(O)Cc1cc(-c2ccccc2)no1` [3-Phenylisoxazol-5-acetic Acid, 3-phenylisoxazol-5-acetic acid], for which the 50% effective dose (ED50) is 70 to 80 mg/kg in data set [1] (rat, carrageenin paw edema); 60 to 90 mg/kg in data set [3] (mice, phenylquinone writhing); greater than 135 mg/kg in the data set with yeast-induced fever (rats, yeast-induced fever). Moreover, the “Acute Toxicity p.o. (dose with 100% mortality)” value with rats (p.o., rats, 100% mortality) was 1500 mg/kg.

As to `CC(=O)Oc1ccccc1C(=O)O` [Aspirin], the 50% effective dose (ED50) in data set [1] (rat, carrageenin paw edema) is 60 to 90 mg/kg; in data set [3] (mice, phenylquinone writhing) it was 70 to 100 mg/kg. In “in vivo [4]”, the LD50 was 1740 mg/kg.

For `CC(C)Cc1ccc(C(C)C(=O)O)cc1` (centres unmarked) [Ibuprofen], the ED50 in data set [1] (rat, carrageenin paw edema) was 15 to 30 mg/kg; in data set [3] (mice, phenylquinone writhing) it was 15 to 25 mg/kg; in the data set with yeast-induced fever (rats, yeast-induced fever), 15 mg/kg.

Take `COc1ccc2c(c1)c(CC(=O)O)c(C)n2C(=O)c1ccc(Cl)cc1` [Indomethacin]: the ED50 in data set [1] (Rattus norvegicus) is 7 to 9 mg/kg; in data set [3] it was less than 1 mg/kg; in the data set on yeast-induced fever it was 3 to 5 mg/kg. For the same compound, the LD50 in the data set “in vivo [4]” was 27 mg/kg.

With `Cc1cccc(Nc2ccccc2C(=O)O)c1C` [Mefenamic Acid], the ED50 in data set [1] (rat, carrageenin paw edema) is 45 to 55 mg/kg; in data set [3] (mice, phenylquinone writhing), 7.5 to 10 mg/kg; in the data set with yeast-induced fever (rats, yeast-induced fever) it was 7.5 to 10 mg/kg.

As to `COc1ccc2cc([C@H](C)C(=O)O)ccc2c1` [Naproxen], the 50% effective dose (ED50) in data set [1] (rat, carrageenin paw edema) was in the range of 10 to 12 mg/kg; in data set [3] (mice, phenylquinone writhing) it was 7.5 to 10 mg/kg; in the data set with yeast-induced fever (rats, yeast-induced fever) it was 15 to 20 mg/kg.

Consider `COc1ccc(-c2noc(C(OC)C(=O)O)c2-c2ccc(OC)cc2)cc1` (stereo not drawn) [Sodium 3,4-Di(p-methoxyphenyl)isoxazol-5α-methoxyacetate], for which the median effective dose (ED50) was 120 mg/kg in data set [1] (rat, carrageenin paw edema); 60 mg/kg in data set [3] (mice, phenylquinone writhing); greater than 120 mg/kg with yeast-induced fever (rats, yeast-induced fever).

As to `CC1=C(CC(=O)O)c2cc(F)ccc2/C1=C\c1ccc([S+](C)[O-])cc1` (centres unmarked) [Sulindac], the ED50 in data set [1] (rat, carrageenin paw edema) lay within 20 to 30 mg/kg; in data set [3] (mice, phenylquinone writhing), 7.5 to 10 mg/kg; in the data set on yeast-induced fever (rats, yeast-induced fever), 7.5 to 10 mg/kg.
